Values quoted from earlier work as cited in patent US11590237B2, “Pharmaceutical formulation comprising incretin-insulin conjugates” (Merck Sharp & Dohme Corp., priority 2017, dated 2023).

Settings: literature data [21]

Number of monomers in oligomers: 6-12 monomers
SMILES: CCCCCCCCCCCCCCCC(=O)N[C@@H](CCC(=O)NCCCC[C@H](NC(=O)[C@H](C)NC(=O)[C@H](C)NC(=O)[C@H](CCC(N)=O)NC(=O)CNC(=O)[C@H](CCC(=O)O)NC(=O)[C@H](CC(C)C)NC(=O)[C@H](Cc1ccc(O)cc1)NC(=O)[C@H](CO)NC(=O)[C@H](CO)NC(=O)[C@@H](NC(=O)[C@H](CC(=O)O)NC(=O)[C@H](CO)NC(=O)[C@@H](NC(=O)[C@H](Cc1ccccc1)NC(=O)[C@@H](NC(=O)CNC(=O)[C@H](CCC(=O)O)NC(=O)[C@H](C)NC(=O)[C@@H](N)Cc1cnc[nH]1)[C@@H](C)O)[C@@H](C)O)C(C)C)C(=O)N[C@@H](CCC(=O)O)C(=O)N[C@@H](Cc1ccccc1)C(=O)N[C@H](C(=O)N[C@@H](C)C(=O)N[C@@H](Cc1c[nH]c2ccccc12)C(=O)N[C@@H](CC(C)C)C(=O)N[C@H](C(=O)N[C@@H](CCCNC(=N)N)C(=O)NCC(=O)N[C@@H](CCCNC(=N)N)C(=O)NCC(=O)O)C(C)C)[C@@H](C)CC)C(=O)O [liraglutide]
